Source: patent US7435837B2, “Dihydrobenzofuranyl alkanamine derivatives and methods for using same” (Wyeth, priority 2003, dated 2008)
pEC50, pKi: −log10 of the molar value. Read-outs that look alike come from different tables or passages of the source.

Legend:
[1] = target: T1, human 5-hydroxytryptamine-2C (h5-HT2C) receptor (Homo sapiens, UniProt P28335); experiment: [125I]DOI binding to membranes of CHO cells expressing the human 5-HT2C receptor; settings: [125I]DOI radioligand, CHO cell membranes, room temperature 60 min; for pKi: read-out: 5-HT2C Affinity Ki
T1 construct: expressed in transfected cells; host or cells: CHO (Chinese Hamster Ovary) cells; membranes
T1 sequence (P28335 33-458): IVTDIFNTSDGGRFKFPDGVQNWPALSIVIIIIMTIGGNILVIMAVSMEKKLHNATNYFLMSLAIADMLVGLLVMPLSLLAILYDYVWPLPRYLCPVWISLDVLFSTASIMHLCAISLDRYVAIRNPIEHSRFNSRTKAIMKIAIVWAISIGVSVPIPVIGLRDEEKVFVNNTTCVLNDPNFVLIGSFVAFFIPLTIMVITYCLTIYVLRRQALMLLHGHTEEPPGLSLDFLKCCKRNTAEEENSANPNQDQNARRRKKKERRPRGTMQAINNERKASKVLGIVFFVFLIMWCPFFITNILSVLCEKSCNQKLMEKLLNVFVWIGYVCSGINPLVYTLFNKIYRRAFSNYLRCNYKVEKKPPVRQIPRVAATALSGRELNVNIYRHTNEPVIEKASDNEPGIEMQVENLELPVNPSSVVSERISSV

[2] = target: T2, human 5-HT2C receptor (Homo sapiens, UniProt P28335); experiment: 5-HT2C receptor-stimulated calcium mobilization (FLIPR) in CHO cells; format: cell-based; settings: for Emax: CHO; for pEC50: read-out: 5-HT2C Function EC50;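 for all read-outs here: Fluo-3-AM fluorescence read on FLIPR every 1 s, agonist added after 10 baseline reads, response taken as peak minus lowest raw fluorescence count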
T2 sequence (P28335 33-458): T1 sequence (P28335 33-458)

[3] = percentage of the response observed with a maximally effective concentration of 5-HT, read-out: 5-HT2C Function Emax (%)
[4] = calcium mobilization, CHO cells stably expressing human 5-HT2C
[5] = percentage of the response observed with a maximally effective concentration of 5-HT

pKi [1]	Emax [2, 3] [%]	pEC50 [2, 4]	5-HT2C Function Emax (%) [2, 5] [%]	SMILES	Ki ([1]; 5-HT2C Affinity Ki (nM)) [nM]	EC50 ([2]; 5-HT2C Function EC50 (nM), calcium mobilization, CHO cells stably expressing human 5-HT2C) [nM]	Emax ([2]; read-out: 5-HT2C Function Emax (%), percentage of the response observed with a maximally effective concentration of 5-HT) [%]
8.52	90	7.49	–	CNCC1Cc2cc(C)cc(-c3ccc(Cl)cc3Cl)c2O1 (racemic) [Example 485, (±)-{[7-(2,4-dichlorophenyl)-5-methyl-2,3-dihydro-1-benzofuran-2-yl]methyl}methylamine]	–	–	–
9.00	100	7.22	–	Cc1cccc(C)c1-c1cccc2c1OC(CN)C2 (racemic) [Example 56, (±)-1-[7-(2,6-dimethylphenyl)-2,3-dihydro-1-benzofuran-2-yl]methanamine]	–	–	–
7.82	90	7.60	–	N#Cc1cc2c(c(-c3ccccc3Cl)c1)OC(CN)C2 (racemic) [Example 312, (±)-2-(aminomethyl)-7-(2-chlorophenyl)-2,3-dihydro-1-benzofuran-5-carbonitrile]	–	–	–
7.85	80	7.19	–	COc1ccc(OC)c(-c2cc(OC)cc3c2OC(CN)C3)c1 (racemic) [Example 371, (±)-{[7-(2,5-dimethoxyphenyl)-5-methoxy-2,3-dihydro-1-benzofuran-2-yl]methyl}amine]	–	–	–
8.00	–	6.88	80	Cc1ccccc1-c1cccc2c1OC(CN)C2 (single isomer, unassigned; (-)) [Example 49, (−)-1-[7-(2-methylphenyl)-2,3-dihydro-1-benzofuran-2-yl]methanamine]	–	–	–
7.40	70	6.89	–	CC(C)c1ccccc1-c1cccc2c1OC(CN)C2 (single isomer, unassigned; (+)) [Example 62, (+)-[7-(2-isopropylphenyl)-2,3-dihydro-1-benzofuran-2-yl]methylamine]	–	–	–
8.05	70	6.00	–	Cc1ccccc1-c1cc(F)c(F)c2c1OC(CN)C2 (racemic) [Example 110, (±)-1-[4,5-difluoro-7-(2-methylphenyl)-2,3-dihydro-1-benzofuran-2-yl]methanamine]	–	–	–
8.10	90	9.70	–	NCC1Cc2cccc(-c3c(Cl)cc(Cl)cc3Cl)c2O1 (racemic) [Example 166, (±)-{[7-(2,4,6-trichlorophenyl)-2,3-dihydro-1-benzofuran-2-yl]methyl}amine]	–	–	–
8.31	100	7.18	–	Cc1cc2c(c(-c3ccc(Cl)cc3)c1)OC(CN)C2 (racemic) [Example 292, (±)-{[7-(4-chlorophenyl)-5-methyl-2,3-dihydro-1-benzofuran-2-yl]methyl}amine]	–	–	–
9.96	90	8.10	–	COc1cccc(-c2cc(C)cc3c2OC(CN)C3)c1OC (racemic) [Example 294, (±)-{[7-(2,3-dimethoxyphenyl)-5-methyl-2,3-dihydro-1-benzofuran-2-yl]methyl}amine]	–	–	–
8.05	85	6.73	–	NCC1Cc2cccc(C3CCCC3)c2O1 (racemic) [Example 8, (±)-(7-cyclopentyl-2,3-dihydro-1-benzofuran-2-yl)methylamine]	–	–	–
8.30	80	7.10	–	NCC1Cc2cc(F)cc(-c3ccc(F)cc3F)c2O1 (racemic) [Example 215, (±)-{[7-(2,4-difluorophenyl)-5-fluoro-2,3-dihydro-1-benzofuran-2-yl]methyl}amine]	–	–	–
8.30	90	7.60	–	Cc1c(Cl)cc(C(C)C)c2c1CC(CN)O2 (single isomer, unassigned; (-)) [Example 22, (−)-1-(5-chloro-7-isopropyl-4-methyl-2,3-dihydro-1-benzofuran-2-yl)methanamine]	–	–	–
8.52	90	7.32	–	COc1ccccc1-c1cc(Cl)cc2c1OC(CN)C2 (racemic) [Example 242, (±)-{[5-chloro-7-(2-methoxyphenyl)-2,3-dihydro-1-benzofuran-2-yl]methyl}amine]	–	–	–
8.42	90	7.46	–	Cc1cc2c(c(-c3ccccc3)c1)OC(CN)C2 (racemic) [Example 281, (±)-{[(5-methyl-7-phenyl-2,3-dihydro-1-benzofuran-2-yl)methyl]amine]	–	–	–
8.92	90	8.52	–	COc1ccc(C)cc1-c1cc(F)cc2c1OC(CN)C2 (racemic) [Example 225, (±)-{[5-fluoro-7-(2-methoxy-5-methylphenyl)-2,3-dihydro-1-benzofuran-2-yl]methyl}amine]	–	–	–

pKi [1]	Emax [2, 3] [%]	pEC50 [2, 4]	5-HT2C Function Emax (%) [2, 5] [%]	SMILES	Ki ([1]; 5-HT2C Affinity Ki (nM)) [nM]	EC50 ([2]; 5-HT2C Function EC50 (nM), calcium mobilization, CHO cells stably expressing human 5-HT2C) [nM]	Emax ([2]; read-out: 5-HT2C Function Emax (%), percentage of the response observed with a maximally effective concentration of 5-HT) [%]
8.55	92	7.80	–	CNCC1Cc2cccc(-c3cc(Cl)ccc3Cl)c2O1 (racemic) [Example 429, (±)-[(N-methyl-1-[7-(2,5-dichlorophenyl)-2,3-dihydro-1-benzofuran-2-yl]methanamine]	–	–	–
9.22	80	8.40	–	CNCC1Cc2cccc(-c3c(Cl)cc(Cl)cc3Cl)c2O1 (racemic) [Example 555, (±)-{N-methyl-1-[(7-(2,4,6-trichlorophenyl)-2,3-dihydro-1-benzofuran-2-yl]methanamine]	–	–	–
8.70	100	6.90	–	COc1ccccc1-c1cccc2c1OC(CN)C2 (racemic) [Example 59, (±)-1-[7-(2-methoxyphenyl)-2,3-dihydro-1-benzofuran-2-yl]methanamine]	–	–	–
8.80	–	7.00	80	NCC1Cc2cccc(-c3c(Cl)cccc3Cl)c2O1 (single isomer, unassigned; (+)) [Example 142, (+)-1-[7-(2,6-dichlorophenyl)-2,3-dihydro-1-benzofuran-2-yl]methanamine]	–	–	–
7.74	–	7.10	70	NCC1Cc2cccc(-c3cc(Cl)ccc3Cl)c2O1 (single isomer, unassigned; (-)) [Example 165, (−)-{[7-(2,5-dichlorophenyl)-2,3-dihydro-1-benzofuran-2-yl]methyl}amine]	–	–	–
7.77	40	5.57	–	Cc1cccc(C)c1-c1cccc2c1CC(CN)O2 (single isomer, unassigned; (+)) [Example 126, (+)-1-[4-(2,6-dimethylphenyl)-2,3-dihydro-1-benzofuran-2-yl]methanamine]	–	–	–
8.30	90	7.10	–	NCC1Cc2cc(Cl)cc(-c3cc(F)ccc3F)c2O1 (racemic) [Example 255, (±)-{[5-chloro-7-(2,5-difluorophenyl)-2,3-dihydro-1-benzofuran-2-yl]methyl}amine]	–	–	–
8.05	80	6.65	–	Cc1cccc(-c2cc(Cl)cc3c2OC(CN)C3)c1C (racemic) [Example 248, (±)-{[5-chloro-7-(2,3-dimethylphenyl)-2,3-dihydro-1-benzofuran-2-yl]methyl}amine]	–	–	–
7.35	90	6.91	–	NCC1Cc2cc(C(F)(F)F)cc(-c3cc(F)ccc3F)c2O1 (racemic) [Example 336, (±)-{[7-(2,5-difluorophenyl)-5-(trifluoromethyl)-2,3-dihydro-1-benzofuran-2-yl]methyl}amine]	–	–	–
–	–	–	–	COc1cc2c(c(-c3ccccc3Cl)c1)OC(CN)C2 (racemic) [Example 357, (±)-{[7-(2-chlorophenyl)-5-methoxy-2,3-dihydro-1-benzofuran-2-yl]methyl}amine]	18	2	100
7.02	70	6.03	–	NCC1Cc2c(cccc2-c2ccccc2C(F)(F)F)O1 (racemic) [Example 122, (±)-1-{4-[2-(trifluoromethyl)phenyl]-2,3-dihydro-1-benzofuran-2-yl}methanamine]	–	–	–
9.00	100	6.62	–	Cc1ccccc1-c1cc(F)cc2c1OC(CN)C2 (racemic) [Example 104, (±)-1-[5-fluoro-7-(2-methylphenyl)-2,3-dihydro-1-benzofuran-2-yl]methanamine]	–	–	–
8.05	90	7.37	–	COc1cccc(-c2cccc3c2OC(CN)C3)c1OC (racemic) [Example 155, (±)-{[7-(2,3-dimethoxyphenyl)-2,3-dihydro-1-benzofuran-2-yl]methyl}amine]	–	–	–
7.96	80	6.98	–	COc1ccc(-c2cc(F)cc3c2OC(CN)C3)cc1 (racemic) [Example 202, (±)-{[5-fluoro-7-(4-methoxyphenyl)-2,3-dihydro-1-benzofuran-2-yl]methyl}amine]	–	–	–
8.59	–	7.24	80	CNCC1Cc2cccc(-c3ccccc3Cl)c2O1 (single isomer, unassigned; (-)) [Example 411, (−)-N-methyl-1-[7-(2-chlorophenyl)-2,3-dihydro-1-benzofuran-2-yl]methanamine]	–	–	–
